Assay results published in patent publication US8440592B2, “Use of abscisic acid combinations for thinning” (Valent BioSciences Corporation, priority 2007, dated 2013).

Columns and labels:
Cabernet Franc grapes [1] = assay: Example 2: dipping Cabernet Franc flower clusters at full bloom, berry number and cluster compactness; type: in vivo, grape; details: clusters dipped at full bloom; 300 ppm ABA, 10 ppm GA3 or 300 ppm ABA mixed with 10 ppm GA3; n = 10 clusters
Description: One cluster was tagged and treated with each of the treatments on each of 10 vines. The clusters were harvested at commercial maturity and berry number and cluster compactness were evaluated.

[2] = tested on: Pioneer McIntosh apple trees; assay: Example 4: fruit set of Pioneer McIntosh apple trees after BA and ABA sprays; type: in vivo; details: 75 ppm BA whole-tree spray, 300 ppm ABA on tagged limbs, or sequential BA then ABA, applied at 9 mm fruit size; for % Fruit Set: counted after June drop
Description: Pioneer McIntosh apple trees were selected for uniformity of bloom and 2 limbs per tree were tagged and all blossom clusters on the tagged limbs were counted. Treatments were applied to four replicate trees per treatment when the average fruit size was 9 mm. BA at 75 ppm was applied as a dilute solution sprayed on whole trees to the drip point on two of the four trees in each replication. […] The solution was shaken and then allowed to sit for 5 minutes. […] The fourth tree in each block received no spray and served as the control. At the end of the June drop period in July, all fruit on the tagged limbs was counted and recorded.

Cabernet Franc grapes [3] = assay: Example 1: dipping Cabernet Franc flower clusters at full bloom, berry number and cluster compactness; type: in vivo, grape; details: clusters dipped at full bloom; 10 ppm GA3, 300 ppm ABA or both together; harvested at commercial maturity; n = 10 clusters
Description: One cluster was tagged and treated with each of the treatments on each of 10 vines. The clusters were harvested at commercial maturity. Cluster compactness was assessed by counting the number of berries per cluster and measuring the total rachis length of each cluster and then calculating the number of berries per cm of rachis.

[4] = tested on: European seedless cucumber (var. Flamingo) plants; assay: Example 6: foliar spray with ABA, abortion of cucumber fruits; type: in vivo; details: ABA 100 ppm sprayed to drip at 20 node growth stage
Description: European seedless cucumber (var. Flamingo) plants were grown in a greenhouse.

Thompson Seedless grape = assay: Example 3: spraying Thompson Seedless grape vines, bunch compactness at harvest; type: in vivo; details: sprayed twice, at 70% bloom and 100% bloom
Description: The applications were made twice, once at 70% bloom and once at 100% bloom. Grape bunch compactness was rated at harvest and the average bunch mass and the average number of berries per gram of rachis was determined.

Empire apple trees = assay: Example 5: crop load and fruit size of Empire apple trees; type: in vivo; details: 100 ppm BA or mixture of 100 ppm BA and 1000 ppm ABA; sprayed at 8 mm fruit size; harvested at maturity
Description: Empire apple trees were selected for tree size and uniformity of bloom. Treatments were applied to five replicate trees per treatment when the average fruit size was 8 mm. BA at 100 ppm was applied as a dilute solution sprayed on whole trees to the drip point on five trees. […] Five trees were left untreated to act as control trees. At the end the season when the fruit were mature all the fruit were harvested and the number of fruit per tree and the average fruit size were determined.

Molecule	Number of berries per cluster (Cabernet Franc grapes [1])	Number of berries per cm rachis (Cabernet Franc grapes [1])	Average Fruit Weight [2] [g]	% Fruit Set [2] [%]	Number of berries per cluster (Cabernet Franc grapes [3])	Number of berries per cm rachis (Cabernet Franc grapes [3])	Rate of fruit abortion compared to the control plants [4]	Percentage of basal 18 cucumber fruits per plant that aborted ([4]; greenhouse, n = 5 replicate plants) [%]	Bunch Compactness (Thompson Seedless grape; rating scale 1 = very loose bunch, 5 = very tight bunch, rated at harvest)	Average bunch mass (Thompson Seedless grape; at harvest) [g]	Average number of berries per gram of rachis (Thompson Seedless grape; at harvest)	Average Fruit Weight (Empire apple trees) [g]	Number of Fruit per Tree (Empire apple trees)
(S)-5-(1-hydroxy-2,6,6,-trimethyl-4-oxo-2-cyclohexen-1-yl)-3-methyl-(2Z,4E)-pentadienoic acid [ABA]	54.3	2.0	146	25	53.0	1.87	twice	68					
gibberellic acid [GA3]	37.6	1.35			34.8	1.33			2.3	830	5.7		
c1ccc(CNc2ncnc3nc[nH]c23)cc1 [BA, benzyladenine]			190	75								123	137
